{"source": "patent US7037500B1", "about": "“Method for using phagocytic particles and ATP receptors to deliver antigens to MHC class I receptors to induce immunity against microbial pathogens or tumors or to suppress immunity” (The Trustees of Columbia University in the City of New York, priority 2000, dated 2006)", "molecules": {"B1": {"name": "Soluble Ova protein: soluble ovalbumin protein (protein, UniProt P01012 2-386, looked up)", "Ovalbumin": "GSIGAASMEFCFDVFKELKVHHANENIFYCPIAIMSALAMVYLGAKDSTRTQINKVVRFDKLPGFGDSIEAQCGTSVNVHSSLRDILNQITKPNDVYSFSLASRLYAEERYPILPEYLQCVKELYRGGLEPINFQTAADQARELINSWVESQTNGIIRNVLQPSSVDSQTAMVLVNAIVFKGLWEKAFKDEDTQAMPFRVTEQESKPVQMMYQIGLFRVASMASEKMKILELPFASGTMSMLVLLPDEVSGLEQLESIINFEKLTEWTSSNVMEERKIKVYLPRMKMEEKYNLTSVLMAMGITDVFSSSANLSGISSAESLKISQAVHAAHAEINEAGREVVGSAEAGVDAASVSEEFRADHPFLFCIKHIATNAVLFFGRCVSP"}}, "key": {"P2X7 receptors": {"molecular_target": "T1, P2X7 receptors (Mus musculus, UniProt Q9Z1M0)", "T1 sequence (Q9Z1M0 1-595)": "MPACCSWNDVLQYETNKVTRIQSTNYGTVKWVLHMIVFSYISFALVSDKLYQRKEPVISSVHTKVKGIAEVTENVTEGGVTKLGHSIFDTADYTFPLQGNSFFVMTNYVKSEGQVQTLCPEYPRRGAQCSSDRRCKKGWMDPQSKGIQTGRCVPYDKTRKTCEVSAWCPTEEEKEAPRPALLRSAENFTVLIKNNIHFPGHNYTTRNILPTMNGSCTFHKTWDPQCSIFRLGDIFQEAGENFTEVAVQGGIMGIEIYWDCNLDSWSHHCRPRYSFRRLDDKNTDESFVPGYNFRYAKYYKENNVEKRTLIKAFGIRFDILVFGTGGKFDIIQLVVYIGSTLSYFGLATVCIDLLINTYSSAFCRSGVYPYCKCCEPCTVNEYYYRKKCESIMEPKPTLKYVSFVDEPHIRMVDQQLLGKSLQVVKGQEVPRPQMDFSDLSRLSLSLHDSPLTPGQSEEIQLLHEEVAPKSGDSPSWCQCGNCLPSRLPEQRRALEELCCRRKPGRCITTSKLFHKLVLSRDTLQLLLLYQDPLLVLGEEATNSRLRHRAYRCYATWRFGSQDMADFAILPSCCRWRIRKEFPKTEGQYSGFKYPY", "conditions": "cited from earlier work"}, "[1]": {"molecular_target": "T2, P2X7 receptors of J774 cells (Mus musculus, UniProt Q9Z1M0)", "T2 construct": "P2X7 receptors of J774 cells; endogenous in cells; host or cells: J774 macrophage-like cells", "T2 sequence (Q9Z1M0 1-595)": "T1 sequence (Q9Z1M0 1-595)", "conditions": "previous study (8); cited from earlier work"}, "[2]": {"test_system": "Mouse bone marrow derived dendritic cells / isogenic spleen derived CD8 lymphocytes", "assay": "CTL assay, 3H-thymidine uptake of CD8 lymphocytes co-incubated with treated dendritic cells", "format": "cell-based", "method": "It is shown herein that if a peptide such as ovalbumin is loaded into the IgG opsonized red blood cell resealed ghosts and then incubated with mouse bone derived dendritic cells—the dendritic cells will present class I MHC and induce cytotoxic CD8 lymphocytes as measured by the capacity of these lymphocytes to proliferate in response to co-incubation of the dendritic cells with CD8 lymphocytes. (Table 1)\nTable 1: Mouse Bone marrow derived dendritic cells prepared as described in FIG. 3 were incubated with the appropriate isogenic spleen derived CD8 lymphocytes for several hours and then the CTL response was assayed by radiolabeled thymidine incorporation into the lymphocytes indicating a proliferative response mediated via class I MHC."}}}
{"molecule": "Nc1ncnc2c1ncn2[C@@H]1O[C@H](COP(=O)(O)OP(=O)(O)OP(=O)(O)O)[C@@H](O)[C@H]1O", "note": "[ATP^4−]", "values": [{"measurement": "[ATP4-] needed to induce pore formation by P2X7 receptors", "setting": "P2X7 receptors", "result": "> 130", "unit": "µM"}]}
{"molecule": "Cc1ccc(N(CC(=O)O)CC(=O)O)c(OCCOc2cc3cc(-c4ncc(C(=O)O)o4)oc3cc2N(CC(=O)O)CC(=O)O)c1", "note": "[fura 2]", "values": [{"measurement": "penetration of plasma membrane pores formed by ATP4-activated P2X7 receptors", "setting": "[1]", "result": "penetrate plasma membrane pores"}]}
{"molecule": "Soluble Ova peptide: soluble ovalbumin peptide (amino acids 257–264) (ESIINFEK; UniProt P01012 257-264, looked up, fragment)", "values": [{"measurement": "CTL Assay- 3H-thymidine uptake (proliferation assay-cpm)", "setting": "[2]; dendritic cells treated with 100 ng/ml", "result": "90,000 cpm"}]}
{"molecule": "B1", "values": [{"measurement": "CTL Assay- 3H-thymidine uptake (proliferation assay-cpm)", "setting": "[2]; dendritic cells treated with 10 mg/ml", "result": "160,000 cpm"}]}
